Measurements reported in ChEMBL document CHEMBL5038669, “Development of the First Covalent Monopolar Spindle Kinase 1 (MPS1/TTK) Inhibitor” (J Med Chem, 2022).
The source made the active and inactive calls. No cut-off for these calls is given here.

Key:
[1] = Microsomal stability in mouse liver microsomes assessed as half life at 100 uM pre-incubated for 5 mins with NADPH- regenerating system followed by liver microsomal addition and measured upto 120 mins by HPLC analysis; assay type: ADME, Microsome; conditions: time <=125 min
[2] = target: T1, Dual specificity protein kinase TTK (Homo sapiens, UniProt P33981); assay: Inhibition of recombinant human full length N-terminal GST-fused MPS1 (1 to 857 residues) using histone H3 as substrate measured immediately in presence of DTT by TR-FRET assay
T1 sequence (P33981 whole entry): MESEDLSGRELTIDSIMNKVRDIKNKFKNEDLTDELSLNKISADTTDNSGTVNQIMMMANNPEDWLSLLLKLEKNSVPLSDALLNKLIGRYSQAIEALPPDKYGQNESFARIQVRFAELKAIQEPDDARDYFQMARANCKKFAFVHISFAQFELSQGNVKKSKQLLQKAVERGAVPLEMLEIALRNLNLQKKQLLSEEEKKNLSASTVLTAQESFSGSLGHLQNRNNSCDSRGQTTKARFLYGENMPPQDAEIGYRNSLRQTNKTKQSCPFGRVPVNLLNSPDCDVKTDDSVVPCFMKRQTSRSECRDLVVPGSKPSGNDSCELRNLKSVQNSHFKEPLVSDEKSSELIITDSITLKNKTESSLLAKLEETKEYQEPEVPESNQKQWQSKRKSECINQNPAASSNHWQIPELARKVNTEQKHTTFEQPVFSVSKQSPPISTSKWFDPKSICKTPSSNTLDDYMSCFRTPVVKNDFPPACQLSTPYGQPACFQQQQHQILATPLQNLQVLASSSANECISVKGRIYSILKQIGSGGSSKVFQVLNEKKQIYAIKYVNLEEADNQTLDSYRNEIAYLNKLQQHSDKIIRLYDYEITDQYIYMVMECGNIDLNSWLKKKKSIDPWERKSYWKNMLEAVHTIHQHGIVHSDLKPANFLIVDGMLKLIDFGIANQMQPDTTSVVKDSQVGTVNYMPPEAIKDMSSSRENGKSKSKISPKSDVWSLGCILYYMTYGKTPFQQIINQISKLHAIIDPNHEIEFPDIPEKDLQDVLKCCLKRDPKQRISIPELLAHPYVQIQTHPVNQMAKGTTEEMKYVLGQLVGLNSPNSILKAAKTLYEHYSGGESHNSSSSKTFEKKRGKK

[3] = target: T1, Dual specificity protein kinase TTK; assay: Inhibition of recombinant human full length N-terminal GST-fused MPS1 (1 to 857 residues) using histone H3 as substrate measured after 1 hr in presence of DTT by TR-FRET assay
[4] = target: T1, Dual specificity protein kinase TTK; assay: Inhibition of recombinant human full length N-terminal GST-fused MPS1 (1 to 857 residues) using histone H3 as substrate measured after 2 hrs in presence of DTT by TR-FRET assay
[5] = target: T1, Dual specificity protein kinase TTK; assay: Inhibition of recombinant human full length N-terminal GST-fused MPS1 (1 to 857 residues) using histone H3 as substrate measured after 4 hrs in presence of DTT by TR-FRET assay
[6] = target: T2, Dual specificity protein kinase TTK (Homo sapiens) (UniProt P33981); assay: Covalent inhibition of human full length N-terminal GST-fused MPS1 (1 to 857 residues) assessed as Kinact by TR-FRET assay
T2 sequence (whole entry): T1 sequence (P33981 whole entry)

[7] = target: T1, Dual specificity protein kinase TTK; assay: Covalent inhibition of human full length N-terminal GST-fused MPS1 (1 to 857 residues) assessed as inhibition constant by TR-FRET assay
[8] = target: T2, Dual specificity protein kinase TTK (Homo sapiens); assay: Covalent inhibition of human full length N-terminal GST-fused MPS1 (1 to 857 residues) assessed as Kinact/Ki ratio by TR-FRET assay
[9] = target: T1, Dual specificity protein kinase TTK; assay: Displacement of tracer K9 from NanoLuc-fused MPS1 (unknown origin) expressed in HEK293T cells measured after 2 hrs by NanoBRET assay; assay type: cell-based
[10] = target: Fibroblast growth factor receptor 4 (Homo sapiens, UniProt P22455); assay: Inhibition of human recombinant FGFR4 expressed in Sf9 insect cells using poly[Glu:Tyr] 4:1 as substrate in presence of [33P]-ATP by radiometric hotspot kinetic assay
Fibroblast growth factor receptor 4, sequence (P22455 whole entry): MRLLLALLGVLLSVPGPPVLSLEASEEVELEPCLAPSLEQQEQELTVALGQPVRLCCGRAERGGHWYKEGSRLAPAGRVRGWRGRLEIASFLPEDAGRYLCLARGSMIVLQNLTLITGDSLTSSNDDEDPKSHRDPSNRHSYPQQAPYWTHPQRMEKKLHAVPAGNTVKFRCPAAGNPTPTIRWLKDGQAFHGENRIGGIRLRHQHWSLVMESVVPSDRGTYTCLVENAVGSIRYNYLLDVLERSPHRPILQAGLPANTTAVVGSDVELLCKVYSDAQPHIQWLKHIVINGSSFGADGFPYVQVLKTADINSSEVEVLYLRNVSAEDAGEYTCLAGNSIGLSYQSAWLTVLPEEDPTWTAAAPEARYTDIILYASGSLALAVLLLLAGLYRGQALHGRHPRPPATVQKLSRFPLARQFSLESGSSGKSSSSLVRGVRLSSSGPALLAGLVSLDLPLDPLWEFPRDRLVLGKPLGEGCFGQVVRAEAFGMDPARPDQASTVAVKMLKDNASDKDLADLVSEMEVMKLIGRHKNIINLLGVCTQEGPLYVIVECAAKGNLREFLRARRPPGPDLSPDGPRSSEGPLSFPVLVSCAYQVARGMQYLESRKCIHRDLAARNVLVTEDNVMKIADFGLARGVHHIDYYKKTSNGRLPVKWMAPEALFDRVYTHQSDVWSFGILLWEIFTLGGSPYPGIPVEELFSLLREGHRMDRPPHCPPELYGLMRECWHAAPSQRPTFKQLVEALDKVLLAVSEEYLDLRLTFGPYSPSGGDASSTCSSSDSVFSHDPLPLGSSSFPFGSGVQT

[11] = target: MAP kinase-activated protein kinase 2 (Homo sapiens, UniProt P49137); assay: Inhibition of human recombinant MAPKAPK2 expressed in Sf9 insect cells using [KKLNRTLSVA] as substrate in presence of [33P]-ATP by radiometric hotspot kinetic assay
MAP kinase-activated protein kinase 2, sequence (P49137 whole entry): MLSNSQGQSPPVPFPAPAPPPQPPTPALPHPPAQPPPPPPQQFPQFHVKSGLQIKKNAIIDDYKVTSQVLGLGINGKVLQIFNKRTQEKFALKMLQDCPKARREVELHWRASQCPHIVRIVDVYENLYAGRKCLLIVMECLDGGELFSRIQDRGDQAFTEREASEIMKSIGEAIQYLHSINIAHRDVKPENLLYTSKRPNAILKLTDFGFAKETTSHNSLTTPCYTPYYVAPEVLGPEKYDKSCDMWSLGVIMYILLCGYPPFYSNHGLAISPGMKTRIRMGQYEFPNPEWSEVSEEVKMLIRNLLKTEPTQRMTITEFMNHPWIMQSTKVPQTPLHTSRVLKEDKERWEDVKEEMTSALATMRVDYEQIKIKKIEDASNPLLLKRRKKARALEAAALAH

[12] = target: MAP kinase-activated protein kinase 3 (Homo sapiens, UniProt Q16644); assay: Inhibition of human recombinant MAPKAPK3 expressed in Sf9 insect cells using [KKLNRTLSVA] as substrate in presence of [33P]-ATP by radiometric hotspot kinetic assay
MAP kinase-activated protein kinase 3, sequence (Q16644 whole entry): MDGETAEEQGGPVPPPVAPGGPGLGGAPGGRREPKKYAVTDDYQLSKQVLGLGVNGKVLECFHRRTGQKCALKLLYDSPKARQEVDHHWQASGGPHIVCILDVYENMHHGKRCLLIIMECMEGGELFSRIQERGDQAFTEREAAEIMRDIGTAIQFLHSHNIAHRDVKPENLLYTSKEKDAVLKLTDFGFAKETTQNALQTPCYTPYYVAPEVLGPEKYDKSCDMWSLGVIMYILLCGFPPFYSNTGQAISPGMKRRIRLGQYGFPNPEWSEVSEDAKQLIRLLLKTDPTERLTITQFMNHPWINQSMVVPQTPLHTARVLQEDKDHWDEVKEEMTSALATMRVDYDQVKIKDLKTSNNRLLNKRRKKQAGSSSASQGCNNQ

[13] = target: Ribosomal protein S6 kinase beta-2 (Homo sapiens, UniProt Q9UBS0); assay: Inhibition of human recombinant P70S6Kbeta expressed in Sf9 insect cells using [KKRNRTLTK] as substrate in presence of [33P]-ATP by radiometric hotspot kinetic assay
Ribosomal protein S6 kinase beta-2, sequence (Q9UBS0 whole entry): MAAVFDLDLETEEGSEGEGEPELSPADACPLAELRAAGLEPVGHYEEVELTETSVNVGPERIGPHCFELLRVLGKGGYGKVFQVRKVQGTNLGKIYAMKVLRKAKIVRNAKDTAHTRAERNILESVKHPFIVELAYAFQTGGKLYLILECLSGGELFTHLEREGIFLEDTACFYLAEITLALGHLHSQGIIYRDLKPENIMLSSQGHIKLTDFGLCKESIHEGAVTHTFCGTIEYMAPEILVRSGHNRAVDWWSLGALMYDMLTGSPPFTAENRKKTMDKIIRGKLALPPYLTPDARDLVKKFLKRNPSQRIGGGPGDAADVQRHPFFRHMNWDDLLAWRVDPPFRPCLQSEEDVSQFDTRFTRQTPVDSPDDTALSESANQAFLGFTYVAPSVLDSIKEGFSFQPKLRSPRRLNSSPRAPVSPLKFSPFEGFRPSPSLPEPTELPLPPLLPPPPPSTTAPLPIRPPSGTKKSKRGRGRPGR

[14] = Stability of compound in glutathione at pH 7.4 assessed as half life by HPLC analysis; assay type: physicochemical; conditions: glutathione solution, time 5 min
[15] = system: MDA-MB-231; assay: Cytotoxicity against human MDA-MB-231cells assessed as reduction in cell viability incubated for 5 days by XTT assay; assay type: functional, cell-based; conditions: time 5.0 day
[16] = system: MDA-MB-468; assay: Cytotoxicity against human MDA-MB-468 cells assessed as reduction in cell viability incubated for 5 days by XTT assay; assay type: functional, cell-based; conditions: time 5.0 day
[17] = system: HCT-15; assay: Cytotoxicity against human HCT-15 cells assessed as reduction in cell viability incubated for 5 days by XTT assay; assay type: functional, cell-based; conditions: time 5.0 day
[18] = system: HCT-116; assay: Cytotoxicity against human HCT-116 cells assessed as reduction in cell viability incubated for 5 days by XTT assay; assay type: functional, cell-based; conditions: time 5.0 day
[19] = system: HCT-116; assay: Cell cycle arrest in human HCT-116 cells assessed as accumulation in G2/M phase incubated for 3 days; assay type: functional, cell-based; conditions: time 3.0 day
[20] = system: HCT-116; assay: Induction of apoptosis in human HCT-116 cells assessed as upregulation of p53 expression measured after 3 days by Western blot analysis; assay type: functional, cell-based; conditions: time 3.0 day
[21] = system: HCT-116; assay: Induction of apoptosis in human HCT-116 cells assessed as upregulation of p21 expression measured after 3 days by Western blot analysis; assay type: functional, cell-based; conditions: time 3.0 day
[22] = system: HCT-116; assay: Induction of apoptosis in human HCT-116 cells assessed as upregulation of phospho-gammaH2A.X expression measured after 3 days by Western blot analysis; assay type: functional, cell-based; conditions: time 3.0 day
[23] = system: HCT-116; assay: Induction of apoptosis in human HCT-116 cells assessed as down regulation of cyclin B1 expression measured after 3 days by Western blot analysis; assay type: functional, cell-based; conditions: time 3.0 day
[24] = system: HCT-116; assay: Induction of apoptosis in human HCT-116 cells assessed as increase in cleaved PARP level measured for 3 days by Western blot analysis; assay type: functional, cell-based; conditions: time 3.0 day
[25] = system: SW-620; assay: Antiproliferative activity against human SW-620 cells; assay type: functional, cell-based
[26] = system: Huh-7; assay: Induction of apoptosis in human Huh-7 cells assessed as down regulation of cyclin B1 expression at 200 nM measured upto 5 days by Western blot analysis; assay type: functional, cell-based; conditions: time day <=5
[27] = system: Hep 3B2; assay: Induction of apoptosis in human Hep3B cells assessed as down regulation of cyclin B1 expression at 200 nM measured upto 5 days by Western blot analysis; assay type: functional, cell-based; conditions: time day <=5
[28] = system: SNU-387; assay: Induction of apoptosis in human SNU-387 cells assessed as down regulation of cyclin B1 expression at 200 nM measured upto 5 days by Western blot analysis; assay type: functional, cell-based; conditions: time day <=5
[29] = system: Hep 3B2; assay: Induction of apoptosis in human Hep3B cells assessed as increase in cleaved PARP level at 200 nM measured upto 5 days by Western blot analysis; assay type: functional, cell-based; conditions: time day <=5

With `C=CC(=O)Nc1cc(N2CCN(C)CC2)ccc1Nc1ncc2c(n1)-n1ccc(C(=O)Nc3c(CC)cccc3CC)c1CC2` the half-life at 100 µM [1] was 1 h, the IC50 [2] was 0.0402 µM and the IC50 [3] was 0.0281 µM. The IC50 [4] was 0.02 µM, the IC50 [5] was 0.0138 µM and the Kinact [6] was 0.000242 s⁻¹. For the same compound, the Ki [7] was 0.0142 µM, the Ratio [8] was 1.71 10^4/M/s and the IC50 [9] was 0.0224 µM. It also gave an IC50 [10] of 2.75 µM, an IC50 [11] greater than 5 µM and an IC50 [12] greater than 5 µM. The IC50 [13] was 1.65 µM, the half-life at 100 µM [14] was 84.5 h and the Activity [15] was “Active”. For the same compound, the Activity [16] was “Active”, the Activity [17] was “Active” and the Activity [18] was “Active”. The Activity [19] was “Active”, the Activity [20] was “Active” and the Activity [21] was “Active”. For the same compound, the Activity [22] was “Active”, the Activity [23] was “Active” and the Activity [24] was “Active”. The Activity [25] was “Active”, the Activity [26] was “Active” and the Activity [27] was “Active”. For the same compound, the Activity [28] was “Active” and the Activity [29] was “Active”.
